The values that follow come from patent US10125125B2, “N-(heteroaryl)-sulfonamide derivatives useful as S100-inhibitors” (Active Biotech AB, priority 2013, dated 2018).

For orientation: IC50 means the concentration needed to halve the response being measured.

Sequence of biotinylated human S100A9 : rhRAGE-Fc interaction (P06702 whole entry): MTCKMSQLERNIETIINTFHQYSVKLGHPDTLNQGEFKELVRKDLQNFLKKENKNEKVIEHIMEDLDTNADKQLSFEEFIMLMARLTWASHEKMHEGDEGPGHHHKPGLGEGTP

The target of this assay is biotinylated human S100A9 : rhRAGE-Fc interaction (Homo sapiens (Human), UniProt P06702). Nature of the assay: AlphaScreen inhibition assay, Biot-hS100A9:hRAGE-Fc (S100A9-RAGE inhibition assay). It counts as binding. The text has this:
FIG. 1 is a schematic representation of an assay of the inhibition of the interaction between biotinylated human S100A9 and human RAGE-Fc using a small molecule S100A9 binder.
Inhibition Assay, Biot-hS100A9:hRAGE-Fc
The AlphaScreen (Amplified Luminescent Proximity Homogeneous Assay) contains two types of beads, Alpha Donor beads and Acceptor beads (PerkinElmer). Upon laser excitation at 680 nm a photosensitizer in the Donor bead converts ambient oxygen to a more excited singlet state. The singlet oxygen molecule diffuses (maximum 200 nm) to react with a thioxene derivative in the Acceptor bead and generates a chemiluminescence reaction. Fluorophores in the Acceptor bead subsequently emit light at 520-620 nm which can be detected in the EnVision® Multilabel plate Reader (PerkinElmer). The beads are light sensitive and all work with the beads is performed under subdued light conditions or using green filters on light sources (Roscolux Chroma Green #389, Rosco).
In the AlphaScreen Inhibition Assay described here, protein A (Staphylococcus aureus) conjugated Acceptor beads are used together with streptavidin coated Donor beads (Perkin Elmer 6760617M). The Acceptor beads are pre-incubated with Fc-tagged recombinant human RAGE (rhRAGE-Fc) allowing binding of the rhRAGE-Fc to protein A on the beads. Biotinylated human S100A9 (biot-hS100A9) is pre-incubated with the low molecular test compounds. The pre-mixes are then added to the wells of a micro-plate and incubated allowing interaction between biot-hS100A9 and rhRAGE-Fc. Subsequent addition of streptavidin coated Donor beads causes binding of the streptavidin to the biotinylated hS100A9. After an additional incubation the signal is measured.
Without inhibitory compounds, the interaction of biot-hS100A9 to rhRAGE-Fc will bring the Acceptor and Donor beads in close proximity thus generating a high signal. With an inhibitor present the complex will not form resulting in a decreased signal.
Chemicals and reagents. • AlphaScreen® General IgG (Protein A) Detection Kit, (PerkinElmer 6760617M) • HBS-P buffer (GE Healthcare, BR-1003-68) • HBS-N buffer (GE Healthcare, BR-1003-69) • CaCl2 in HBS-P • ZnCl2 in Milli-Q water • DMSO • Biotinylated hS100A9, (biotinylated via cystein by EZ-link Iodoacetyl-PEG2-Biotin reagent (Pierce no. 21334), in HBS-N • rhRAGE-Fc (R&D Systems, 1145-RG-50), in HBS-P
The AlphaScreen assay method is used for screening of the inhibitory effect of different compound samples at fixed concentrations or for IC50 determination by varying the compound concentrations. Samples of test compounds and references are prepared from solutions in DMSO. Relevant reference inhibitors and DMSO are used as controls for defined inhibition and non-inhibition, respectively in the assay. The percent inhibition in assay for test compounds and references are calculated by comparing their obtained assay signals with the signal values for the control with only DMSO (no compound).
Assay concentration of biotinylated hS100A9 and rhRAGE-Fc are batch dependent, and are determined and defined by separate cross-titration experiments using this AlphaScreen inhibition method to verify the optimal setup regarding signal strength and achievement of a defined inhibition with relevant reference compounds. The Final assay concentrations of Acceptor and Donor beads are 20 μg/mL.
Experimental Set Up for Screening, Preparation of Solutions and Beads.
Assay buffer is prepared by adding CaCl2 and ZnCl2 to HBS-P and is used freshly prepared in the experiment.
Biotin-hS100A9 solution for the experiment is prepared by dilution of appropriate amount of stock solution biot-hS100A9 in assay buffer (with CaCl2 and ZnCl2) and incubation in room temperature for 30 minutes.
rhRAGE-Fc solution for the experiment is prepared by dilution appropriate amount of rhRAGE-Fc stock in assay buffer.
Protein A Acceptor beads are diluted in assay buffer and are added to an equal volume of the prepared diluted rhRAGE-Fc solution.
For the compound `O=S(=O)(Nc1nnc(Cl)cc1O)c1cc(Cl)cc(Cl)c1` [Example 95, 3,5-dichloro-N-(6-chloro-4-hydroxypyridazin-3-yl)benzene-1-sulfonamide], the IC50 was determined as 700 nM. For `O=S(=O)(Cc1cccc(Cl)c1)Nc1nnc(Cl)cc1O` [Example 96, N-(6-chloro-4-hydroxypyridazin-3-yl)-1-(3-chlorophenyl)methanesulfonamide] the value was 410 nM; for `O=S(=O)(Cc1cc(Cl)cc(Cl)c1)Nc1cncc(Br)c1O` [Example 97, N-(5-bromo-4-hydroxypyridin-3-yl)-1-(3,5-dichlorophenyl)methanesulfonamide], 3800 nM. With `O=S(=O)(Nc1cncc(Cl)c1O)c1ccc(OC(F)(F)F)c(Cl)c1` [Example 102, 3-chloro-N-(5-chloro-4-hydroxypyridin-3-yl)-4-(trifluoromethoxy)benzene-1-sulfonamide] the figure was 2200 nM; with `N#Cc1cnc(NS(=O)(=O)Cc2cc(Cl)cc(Cl)c2)c(O)n1` [Example 103, N-(5-cyano-3-hydroxypyrazin-2-yl)-1-(3,5-dichlorophenyl)methanesulfonamide], under 1000 nM; with `O=S(=O)(Cc1cc(Cl)cc(Cl)c1)Nc1cnc(Cl)nc1O` [Example 107, N-(2-chloro-4-hydroxypyrimidin-5-yl)-1-(3,5-dichlorophenyl)methanesulfonamide], 4000 nM.

Regarding `CCS(=O)(=O)c1cc(O)c(NS(=O)(=O)Cc2cc(Cl)cc(Cl)c2)nn1` [Example 111, 1-(3,5-dichlorophenyl)-N-[6-(ethanesulfonyl)-4-hydroxypyridazin-3-yl]methanesulfonamide], the IC50 came to 100 nM.

Consider `CS(=O)(=O)c1cnc(NS(=O)(=O)Cc2cc(Cl)cc(Cl)c2)c(O)n1` [Example 112, 1-(3,5-dichlorophenyl)-N-(3-hydroxy-5-methanesulfonylpyrazin-2-yl)methane-sulfonamide], for which the IC50 turned out to be 420 nM. For `O=S(=O)(Nc1nnc(Cl)cc1O)c1cc(Cl)sc1Cl` [Example 113, 2,5-dichloro-N-(6-chloro-4-hydroxypyridazin-3-yl)thiophene-3-sulfonamide] the value was 2000 nM; for `COc1ncc(S(=O)(=O)Nc2nnc(Cl)cc2O)cc1Br` [Example 114, 5-bromo-N-(6-chloro-4-hydroxypyridazin-3-yl)-6-methoxypyridine-3-sulfonamide], 1000 nM.

In the case of `COc1ccc(S(=O)(=O)Nc2cncc(Cl)c2O)cc1Cl` [Example 122, 3-chloro-N-(5-chloro-4-hydroxypyridin-3-yl)-4-methoxybenzene-1-sulfonamide], the IC50 was over 1000 nM.

With `N#Cc1cc(CS(=O)(=O)Nc2ncc(Cl)cc2O)cs1` [Example 127, N-(5-chloro-3-hydroxypyridin-2-yl)-1-(5-cyanothiophen-3-yl)methanesulfonamide], the IC50 amounted to 1110 nM. With `N#Cc1nc(NS(=O)(=O)Cc2cc(Cl)cc(Cl)c2)c(O)cc1Cl` [Example 130, N-(5-chloro-6-cyano-3-hydroxypyridin-2-yl)-1-(3,5-dichlorophenyl)methane-sulfonamide] the figure was 390 nM; with `O=S(=O)(Cc1cc(Cl)cc(Cl)c1)Nc1ncc(S(=O)(=O)C2CCCC2)cc1O` [Example 131, N-[5-(cyclopentanesulfonyl)-3-hydroxypyridin-2-yl]-1-(3,5-dichlorophenyl)methane-sulfonamide], 120 nM. In the case of `CS(=O)(=O)c1nc(NS(=O)(=O)Cc2cc(Cl)cc(Cl)c2)c(O)cc1Cl` [Example 134, N-(5-chloro-3-hydroxy-6-methanesulfonylpyridin-2-yl)-1-(3,5-dichlorophenyl)-methanesulfonamide], the IC50 was 530 nM.

As for `CN(C)c1ncc(S(=O)(=O)Nc2ncc(Cl)cc2O)cc1S(C)(=O)=O` [Example 136, N-(5-chloro-3-hydroxypyridin-2-yl)-6-(dimethylamino)-5-methanesulfonylpyridine-3-sulfonamide], the IC50 was over 1000 nM.

For the compound `COc1ncc(S(=O)(=O)Nc2cnc(C(F)(F)F)cc2O)cc1Br` [Example 137, 5-bromo-N-[4-hydroxy-6-(trifluoromethyl)pyridin-3-yl]-6-methoxypyridine-3-sulfonamide], the IC50 was 1800 nM. In the case of `N#Cc1cncc(NS(=O)(=O)Cc2cc(Cl)cc(Cl)c2)c1O` [Example 138, N-(5-cyano-4-hydroxypyridin-3-yl)-1-(3,5-dichlorophenyl)methanesulfonamide], the IC50 amounted to 3900 nM. With `O=S(=O)(Cc1cc(Cl)cc(Cl)c1)Nc1nnc(S(=O)(=O)CCCO)cc1O` [Example 139, 1-(3,5-dichlorophenyl)-N-[4-hydroxy-6-(3-hydroxypropanesulfonyl)pyridazin-3-yl]methanesulfonamide] the figure was under 1000 nM; with `O=S(=O)(Cc1cc(Cl)cc(Cl)c1)Nc1nc(Cl)ncc1O` [Example 143, N-(2-chloro-5-hydroxypyrimidin-4-yl)-1-(3,5-dichlorophenyl)methanesulfonamide], 180 nM. For the compound `O=S(=O)(Nc1nc(Cl)ncc1O)c1ccc(Cl)c(Cl)c1` [Example 144, 3,4-dichloro-N-(2-chloro-5-hydroxypyrimidin-4-yl)benzene-1-sulfonamide], the IC50 was under 1000 nM. With `CS(=O)(=O)c1cc(O)c(NS(=O)(=O)c2cc(Cl)cc(Cl)c2)cn1` [Example 155, 3,5-dichloro-N-(4-hydroxy-6-methanesulfonylpyridin-3-yl)benzene-1-sulfonamide] the figure was over 1000 nM; with `O=S(=O)(Cc1cc(Cl)cc(Cl)c1)Nc1nc(C(F)(F)F)ncc1O` [Example 157, 1-(3,5-dichlorophenyl)-N-[5-hydroxy-2-(trifluoromethyl)pyrimidin-4-yl]methane-sulfonamide], under 1000 nM; with `CS(=O)(=O)c1cnc(NS(=O)(=O)c2cc(Cl)cc(Cl)c2)c(O)n1` [Example 159, 3,5-dichloro-N-(3-hydroxy-5-methanesulfonylpyrazin-2-yl)benzene-1-sulfonamide], 1800 nM. As for `CCN(CC)C(=O)c1cc(Cl)cc(CS(=O)(=O)Nc2nnc(Cl)cc2O)c1` [Example 161, 3-chloro-5-{[(6-chloro-4-hydroxypyridazin-3-yl)sulfamoyl]methyl}-N,N-diethylbenzamide], the IC50 was found to be 5100 nM. `O=S(=O)(Nc1nnc(C(F)(F)F)cc1O)c1cc(F)cc(Cl)c1` [Example 163, 3-chloro-5-fluoro-N-[4-hydroxy-6-(trifluoromethyl)pyridazin-3-yl]benzene-1-sulfonamide]: the IC50 is over 1000 nM.

With `O=S(=O)(Cc1cc(Cl)cc(Cl)c1)Nc1ccncc1O` [Example 167, 1-(3,5-dichlorophenyl)-N-(3-hydroxypyridin-4-yl)methanesulfonamide], the IC50 was under 1000 nM. Consider `O=S(=O)(Nc1ccnc(Cl)c1O)c1cc(Cl)cc(Cl)c1` [Example 170, 3,5-dichloro-N-(2-chloro-3-hydroxypyridin-4-yl)benzene-1-sulfonamide], for which the IC50 is under 1000 nM.

Consider `O=S(=O)(Cc1ccc(Cl)c(Cl)c1)Nc1cc(Cl)cnc1O` [Example 172, N-(5-chloro-2-hydroxypyridin-3-yl)-1-(3,4-dichlorophenyl)methanesulfonamide], for which the IC50 is 3100 nM. On to `O=S(=O)(Cc1cc(Cl)cc(Cl)c1)Nc1cc(Cl)c(Cl)nc1O` [Example 173, N-(5,6-dichloro-2-hydroxypyridin-3-yl)-1-(3,5-dichlorophenyl)methanesulfonamide], for which the IC50 was under 1000 nM. As to `O=S(=O)(Cc1ccc(C(F)(F)F)cc1)Nc1ccc(Cl)nc1O` [Example 178, N-(6-chloro-2-hydroxypyridin-3-yl)-1-[4-(trifluoromethyl)phenyl]methane-sulfonamide], the IC50 is over 1000 nM.
